Results on two molecules are retold here after patent publication US20230103631A1, “PEPTIDES AS SELECTIVE GIP RECEPTOR AGONISTS” (Sanofi, priority 2020, published 2023).

Structures are written as SMILES. *1 amine or outer side, *2 acyl side, *3 side chain or, on linkers, in order; H or OH if unused. Where a SMILES comes first, the peptide text is derived from it. Side-chain parts run from the residue outwards. [ ]: non-standard residue; d: D form. The star is where a group is joined. C18 diacid = O=C(O)CCCCCCCCCCCCCCCCC(=O)*; γGlu = O=C(O)[C@H](CCC(=O)[*:2])N[*:1]; AEEA = NCCOCCOCC(=O)O; Aib = CC(C)(N)C(=O)O

The term AUC(0-t) denotes exposure summed from dosing to a finite time, without extrapolation to infinity. One may read the Cmax as the maximum level reached in the sampled fluid or tissue. Usually half-life stands for the time needed for the level to fall by half in the phase considered. Read a high half-life as slow decline. Usually bioavailability stands for dose-corrected exposure relative to a reference, in per cent. The low end stands for little systemic uptake, the high end for much systemic uptake.

The nature of series [1]: ThT assay for the assessment of physical stability. In kind it is physicochemical. Particulars: ThT buffer system A: 100 mM phosphate buffer pH 7.4; 3 mg/ml, 37° C. From the text: Low physical stability of a peptide solution may lead to amyloid fibril formation, which is observed as well-ordered, thread-like macromolecular structures in the sample, which eventually may lead to gel formation. Thioflavin T (ThT) is widely used to visualize and quantify the presence of misfolded protein aggregates [Biancalana et al., Biochim. Biophys. Acta 2010, 1804(7), 1405]. […] Enzymol. 1999, 309, 274]. The time course for fibril formation often follows the characteristic shape of a sigmoidal curve and can be separated into three regions: a lag phase, a fast growth phase, and a plateau phase.
The typical fibril formation process starts with the lag phase in which the amount of partially folded peptide turned into fibrils is not significant enough to be detected. The lag-time corresponds to the time the critical mass of the nucleus is built. Afterwards, a drastic elongation phase follows, and fibril concentration increases rapidly.
Investigations were carried out to determine fibrillation tendencies under stress conditions by shaking at 37° C. within Fluoroskan Ascent FL or Fluoroskan Ascent.
For the tests in Fluoroskan Ascent (FL), 200 μl sample were placed into a 96-well mictrotiter plate PS, flat bottom, Greiner Fluotrac No. 655076. Plates were sealed with Scotch Tape (Qiagen). Samples were stressed by continuous cycles of 10 sec shaking at 960 rpm and 50 sec rest period at 37° C. The kinetic was monitored by measuring fluorescence intensity every 20 min.
Peptides were diluted in a buffer system to a final concentration of 3 mg/ml. 20 μl of a 10.1 mM ThT solution in H2O were added to 2 ml of peptide solution to receive a final concentration of 100 μM ThT. For each sample eight replicates were tested.
ThT buffer system A) 100 mM phosphate buffer pH 7.4
ThT buffer system B) 100 mM phosphate buffer pH 7.4, 2.7 mg/ml m-cresol
Lag time in hours (h) in Thioflavin T (ThT) assay of peptide samples was determined in ThT buffer system A as described in Methods.

A short description of series [2]: Dynamic light scattering (DLS) for the assessment of physical stability. In kind it is physicochemical. The text has this:
A monochromatic and coherent light beam (laser) is used to illuminate the liquid sample. Dynamic Light Scattering (DLS) measures light scattered from particles (1 nm≤radius≤1 μm) that undergo Brownian motion. This motion is induced by collisions between the particles and solvent molecules, that themselves are moving due to their thermal energy. The diffusional motion of the particles results in temporal fluctuations of the scattered light (R. Pecora, Dynamic Light Scattering: Applications of Photon Correlation Spectroscopy, Plenum Press, 1985).
The scattered light intensity fluctuations are recorded and transformed into an autocorrelation function. By fitting the autocorrelation curve to an exponential function, the diffusion coefficient D of the particles in solution can be derived. The diffusion coefficient is then used to calculate the hydrodynamic radius Rh (or apparent Stokes radius) through the Stokes-Einstein equation assuming spherical particles. This calculation is defined in ISO 13321 and ISO 22412 (International Standard ISO13321 Methods for Determination of Particle Size Distribution Part 8: Photon Correlation Spectroscopy, International Organisation for Standardisation (ISO) 1996; International Standard ISO22412 Particle Size Analysis—Dynamic Light Scattering, International Organisation for Standardisation, 2008).
In case of polydisperse samples, the autocorrelation function is the sum of the exponential decays corresponding to each of the species. The temporal fluctuations of the scattered light can then be used to determine the size distribution profile of the particle fraction or family. The first order result is an intensity distribution of scattered light as a function of the particle size. The intensity distribution is naturally weighted according to the scattering intensity of each particle fraction or family. For biological materials or polymers, the particle scattering intensity is proportional to the square of the molecular weight. Thus, small amount of aggregates/agglomerates or presence or a larger particle species can dominate the intensity distribution. However, this distribution can be used as a sensitive detector for the presence of large material in the sample.
The DLS technique produces distributions with inherent peak broadening. The polydispersity index % Pd is a measure of the width of the particle size distribution and is calculated by standard methods described in ISO13321 and ISO22412 [International Standard ISO13321 Methods for Determination of Particle Size Distribution Part 8: Photon Correlation Spectroscopy, International Organisation for Standardisation (ISO) 1996; International Standard ISO22412 Particle Size Analysis—Dynamic Light Scattering, International Organisation for Standardisation (ISO) 2008].
Solutions from solid samples were prepared in buffer systems (see below) with a target concentration of 300 μM compound based on the previously determined % purity.
DLS buffer system A) 20 mM phosphate buffer pH 7.4
DLS buffer system B) 8 mM phosphate buffer pH 7.4, 14 mg/ml propylene glycol, 5.5 mg/ml phenol
DLS buffer system C) 100 mM phosphate buffer pH 7.4, 2.7 mg/ml m-cresol Solutions were filtered through 0.22 μm pore size and filled into sterilized glass containers under laminar flow conditions. For every peptide solution, the apparent hydrodynamic radius (Rh), the corresponding Scattering Intensity (I), and the Mass Contribution (M) were determined as an average over 3-6 replicates from the intensity distribution of the scattered light averaging only high-quality measurements. Relative standard deviations (RSD) for these parameters were calculated from the same number of replicates. […]

Series [3] can be described thus: Pharmacokinetic evaluation in rats. In kind it is in vivo. Particulars: male, SD, rat, plasma; for clearance: read-out: CI (converted). As to the method:
Compounds were administered in a suitable buffer system, e.g. PBS buffer solution at pH7.4 or DPBS solution at concentrations of 0.05, 0.1, 0.5 or 1 mg/ml depending on dose, species and administration volume.
Male SD rats were dosed 0.25 mg/kg, 0.5 mg/kg or 1 mg/kg intravenously (i.v.) or subcutaneously (s.c.). Blood samples were collected after 0.08, 0.25, 0.5, 1, 2, 4, 8, 24, 32, and 48 h post i.v. application and 0.25, 0.5, 1, 2, 4, 8, 24, 32, and 48 h post s.c. application, respectively. Plasma samples were analyzed after protein precipitation via liquid chromatography mass spectrometry (LC/MS). PK parameters and half-life were calculated using Phoenix-WinNonlin 8.1 using a non-compartmental model and linear trapezoidal interpolation calculation.
Pharmacokinetic profiles were determined as described in Methods.

A short description of series [4]: Pharmacokinetic evaluation in minipigs. In kind it is in vivo. The following applies: female, Gottingen, minipig, plasma.
[5] abbreviates: DLS buffer system A, 4 weeks storage at 40° C.
Setting [6] is: DLS buffer system B (phenol), 0 weeks.
Where [7] appears, read: DLS buffer system B (phenol), 4 weeks storage at 40° C.

In the case of `CC[C@H](C)[C@H](NC(=O)[C@H](Cc1ccccc1)NC(=O)[C@H](CCC(=O)O)NC(=O)[C@H](CCC(=O)O)NC(=O)[C@H](CCC(N)=O)NC(=O)[C@H](Cc1c[nH]cn1)NC(=O)[C@@H](NC(=O)[C@H](CCCNC(=N)N)NC(=O)[C@H](CC(=O)O)NC(=O)[C@H](CCCCNC(=O)COCCOCCNC(=O)COCCOCCNC(=O)CC[C@H](NC(=O)CCCCCCCCCCCCCCCCC(=O)O)C(=O)O)NC(=O)C(C)(C)NC(=O)[C@@H](NC(=O)[C@H](CO)NC(=O)[C@H](CC(C)C)NC(=O)[C@H](CC(=O)O)NC(=O)[C@H](CO)NC(=O)[C@@H](NC(=O)[C@H](Cc1ccccc1)NC(=O)[C@@H](NC(=O)CNC(=O)[C@H](CCC(=O)O)NC(=O)C(C)(C)NC(=O)[C@@H](N)Cc1ccc(O)cc1)[C@@H](C)O)[C@@H](C)CC)[C@@H](C)CC)[C@@H](C)CC)C(=O)N[C@@H](CCC(=O)O)C(=O)N[C@@H](Cc1c[nH]c2ccccc12)C(=O)N[C@@H](CC(C)C)C(=O)N[C@@H](CC(C)C)C(=O)N[C@@H](C)C(=O)N[C@@H](CCC(N)=O)C(=O)NCC(=O)N1CCC[C@H]1C(=O)N[C@@H](CO)C(=O)N[C@@H](CO)C(=O)NCC(=O)N[C@@H](C)C(=O)N1CCC[C@H]1C(=O)N1CCC[C@H]1C(=O)N1CCC[C@H]1C(=O)N[C@@H](CO)C(N)=O` [SEQ ID NO: 9, H2N-Y-Aib-E-G-T-F-I-S-D-I-S-I-Aib-K[{AEEA}2-gGlu-C18OH]-DRIHQEEFIEWILAQGPSSGAPPPS-NH2] (H-Y[Aib]EGTFISDLSI[Aib]K([AEEA-AEEA-γGlu-C18 diacid])DRIHQEEFIEWLLAQGPSSGAPPPS-NH2), in series [1], the “Increase in FI” value is “no” and the “Lag time before increase” value is greater than 45 h. In addition, in series [2] (DLS buffer system A, 0 weeks), the “I and SD (Scattering Intensity)” value turned out to be 80 ± 3%; the “M and SD (Mass Contribution)” value came out at 100 ± 0%; the “apparent Rh and SD” value is reported as 1.86 ± 0.03 nm. Moreover, in series [2] (setting [5]), the “I and SD (Scattering Intensity)” value was found to be 80 ± 3%; the “M and SD (Mass Contribution)” value is reported as 100 ± 0%; the “apparent Rh and SD” value was found to be 1.87 ± 0.03 nm. In series [2] (setting [6]), the “I and SD (Scattering Intensity)” value is reported as 82 ± 3%; the “M and SD (Mass Contribution)” value is listed as 100 ± 0%; the “apparent Rh and SD” value came to 1.85 ± 0.04 nm. In series [2] (setting [7]), the “I and SD (Scattering Intensity)” value worked out at 97 ± 4%; the “M and SD (Mass Contribution)” value is given as 100 ± 0%; the “apparent Rh and SD” value came to 1.73 ± 0.03 nm. In series [3] (iv, 0.25 mg/kg i.v.), the AUC(0-t) stood at 54500 ng·h/mL, the peak level (Cmax) was 5600 ng/mL, the half-life was 14.8 h and the clearance is 4.19 mL/h/kg. In series [3] (sc, 0.5 mg/kg s.c.), this molecule showed an AUC(0-t) of 72900 ng·h/mL, a Cmax of 2490 ng/mL, a bioavailability of 73% and a half-life of 16.9 h. Moreover, in series [4] (iv, 0.05 mg/kg i.v.), the AUC(0-t) stood at 177000 ng·h/mL, the Cmax is 5530 ng/mL and the half-life was 75.8 h. Besides, the clearance in series [4] (iv, 0.05 mg/kg i.v., read-out: CI (converted)) was 0.16 mL/h/kg. Also, in series [4] (sc, 0.1 mg/kg s.c.), the exposure AUC(0-t) stood at 228000 ng·h/mL, the highest level (Cmax) was 3080 ng/mL and the bioavailability was 64%.

Consider `CC[C@H](C)[C@H](NC(=O)[C@H](CCCNC(=N)N)NC(=O)[C@H](CC(=O)O)NC(=O)[C@H](CCCCNC(=O)COCCOCCNC(=O)COCCOCCNC(=O)CC[C@H](NC(=O)CCCCCCCCCCCCCCCCC(=O)O)C(=O)O)NC(=O)C(C)(C)NC(=O)[C@@H](NC(=O)[C@H](CO)NC(=O)[C@H](CC(C)C)NC(=O)[C@H](CC(=O)O)NC(=O)[C@H](CO)NC(=O)[C@@H](NC(=O)[C@H](Cc1ccccc1)NC(=O)[C@@H](NC(=O)CNC(=O)[C@H](CCC(=O)O)NC(=O)C(C)(C)NC(=O)[C@@H](N)Cc1ccc(O)cc1)[C@@H](C)O)[C@@H](C)CC)[C@@H](C)CC)C(=O)N[C@@H](Cc1c[nH]cn1)C(=O)N[C@@H](CCC(N)=O)C(=O)NC(C)(C)C(=O)N[C@@H](CCC(=O)O)C(=O)N[C@@H](Cc1ccccc1)C(=O)N[C@H](C(=O)N[C@@H](CCC(=O)O)C(=O)N[C@@H](Cc1c[nH]c2ccccc12)C(=O)N[C@@H](CC(C)C)C(=O)N[C@@H](CC(C)C)C(=O)N[C@@H](C)C(=O)N[C@@H](CCC(N)=O)C(=O)NCC(=O)N1CCC[C@H]1C(=O)N[C@@H](CO)C(=O)N[C@@H](CO)C(=O)NCC(=O)N[C@@H](C)C(=O)N1CCC[C@H]1C(=O)N1CCC[C@H]1C(=O)N1CCC[C@H]1C(=O)N[C@@H](CO)C(N)=O)[C@@H](C)CC` [SEQ ID NO: 4, H2N-Y-Aib-E-G-T-F-I-S-D-I-S-I-Aib-K[{AEEA}2-gGlu-C18OH]-D-R-I-H-Q-Aib-E-F-I-E-W-I-L-A-Q-G-P-S-S-G-A-P-P-P-S-NH2] (H-Y[Aib]EGTFISDLSI[Aib]K([AEEA-AEEA-γGlu-C18 diacid])DRIHQ[Aib]EFIEWLLAQGPSSGAPPPS-NH2), for which, in series [1], the “Increase in FI” value was “no” and the “Lag time before increase” value is given as greater than 45 h. Also, in series [2] (DLS buffer system A, 0 weeks), the “I and SD (Scattering Intensity)” value is reported as 93 ± 1%; the “M and SD (Mass Contribution)” value is 100 ± 0%; the “apparent Rh and SD” value was found to be 1.91 ± 0.05 nm. For the same molecule, in series [2] (setting [5]), the “I and SD (Scattering Intensity)” value came out at 93 ± 1%; the “M and SD (Mass Contribution)” value was 100 ± 0%; the “apparent Rh and SD” value worked out at 1.9 ± 0.04 nm. For the same molecule, in series [3] (iv, 0.25 mg/kg i.v.), the area under the curve AUC(0-t) came out at 50200 ng·h/mL, the Cmax worked out at 6890 ng/mL, the half-life was 12.3 h and the clearance was 4.68 mL/h/kg. Also, in series [3] (sc, 0.5 mg/kg s.c.), the AUC(0-t) is 44400 ng·h/mL, the Cmax came to 1270 ng/mL, the bioavailability was 52% and the half-life was 16.5 h.
